In US6362369B1, “Phthalic acid diamide derivatives fluorine-containing aniline compounds as starting material, agricultural and horticultural insecticides, and a method for application of the insecticides” (Nihon Nohyaku Co., Ltd., priority 1997, dated 2002):

Legend:
[1] = tested on: rice leafroller (Cnaphalocrocis medinalis); assay: Insecticidal effect on rice leafroller (Test Example 3); format: in vivo; conditions: 500 ppm, 25° C., humidity 70%; for Insecticidal effect (Test Example 3), judged from mortality / Insecticidal effect on rice leafroller (Test Example 3), judged grade: rice lamina dip; for Insecticidal effect (Test Example 3), judged from mortality: 4 days after inoculation; for Insecticidal effect on rice leafroller (Test Example 3), judged grade: third-instar larvae; for Insecticidal effect on rice leafroller (Test Example 3), judged grade / Insecticidal effect, Test Example 3: four days after inoculation; for Insecticidal effect, Test Example 3: rice lamina immersed
Procedure, shortened: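 Groups of 10 third-instar larvae, in triplicate, are placed on air-dried lamina resting on wet filter paper. Incubation runs four days at 25° C with 70% humidity before survivors and dead are tallied.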

[2] = tested on: diamondback moth (Plutella xylostella); assay: Insecticidal effect on diamondback moth (Test Example 1); format: in vivo; conditions: for Insecticidal effect (Test Example 1), judged from mortality / Insecticidal effect, Test Example 1: diamondback moth; for Insecticidal effect (Test Example 1), judged from mortality: judged by the criterion of Test Example 1; for Insecticidal effect on diamondback moth (Test Example 1), judged grade: mortality judged according to the criterion shown in Test Example 1
Procedure, shortened: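 Eggs laid by adult moths on Chinese cabbage seedlings, which were immersed in test solution, air-dried and kept at 25 °C. Hatched insects counted 6 days after immersion and mortality calculated, with effect graded by criterion; triplicate groups of 10 insects.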

[3] = third-instar larvae of rice leafroller
[4] = judged by the mortality criterion of Test Example 1
[5] = rice leafroller third-instar larvae
[6] = mortality judged by criterion of Test Example 1

Row | SMILES | Insecticidal effect on rice leafroller (Test Example 3), judged grade [1] | Insecticidal effect on diamondback moth (Test Example 1), judged grade [2] | Insecticidal effect, Test Example 3 [1, 3] | Insecticidal effect, Test Example 1 [2, 4] | further results
1 | Cc1cc(OC(F)(F)F)ccc1NC(=O)c1c(I)cccc1C(=O)NC(C)c1ccccn1 (stereo not drawn) [compound 1776] |  |  |  |  | Insecticidal effect (Test Example 3), judged from mortality [1, 3]: A (100); Insecticidal effect (Test Example 1), judged from mortality [2]: A (100)
2 | CC(C)NC(=O)c1c(F)cccc1C(=O)Nc1ccc(OC(F)(F)F)cc1 [compound 475] | D (79-50) | A (100) |  |  | 
3 | CC(C)NC(=O)c1c(Cl)cccc1C(=O)Nc1ccc(-c2ccccc2)cc1 [compound 110] |  |  | A (100) | A (100) | 
4 | Cc1cc(OC(F)F)ccc1NC(=O)c1cccc([S+](C)[O-])c1C(=O)NC(C)C (stereo not drawn) [compound 791] | A (100) | A (100) |  |  | 
5 | Cc1cc(Cl)ccc1NC(=O)c1c(OC(F)F)cccc1C(=O)NC(C)C [compound 777] | D (79-50) | A (100) |  |  | 
6 | CNC(=O)c1c(C(=O)Nc2ccc(OC(F)F)cc2C)cccc1[N+](=O)[O-] [compound 4] |  |  | D (79-50) | A (100) | 
7 | Cc1cc(OC(F)F)ccc1NC(=O)c1c(Br)ccc(Br)c1C(=O)NC(C)C [compound 340] |  |  | A (100) | A (100) | 
8 | CC(C)NC(=O)c1cccc(I)c1C(=O)Nc1ccc(I)cc1 [compound 413] |  |  | C (89-80) | A (100) | 
9 | CCCN(CCC)C(=O)c1c(I)cccc1C(=O)Nc1ccc(OC(F)F)cc1C [compound 1157] |  |  |  |  | Insecticidal effect, Test Example 3 [1, 5]: A (100); Insecticidal effect, Test Example 1 [2, 6]: A (100)
10 | Cc1cc(C(F)(F)C(F)(F)F)ccc1NC(=O)c1c(Cl)cccc1C(=O)NCc1ccc(Cl)c(Cl)c1 [compound 1352] |  |  |  |  | Insecticidal effect, Test Example 3 [1, 5]: A (100); Insecticidal effect, Test Example 1 [2, 6]: A (100)
11 | COc1ccc(NC(=O)c2c(Br)cccc2C(=O)NC(C)C)c(C)c1 [compound 322] |  |  | B (99-90) | A (100) | 
12 | CCCc1cc(I)ccc1NC(=O)c1cccc(I)c1C(=O)NC(C)C [compound 952] |  |  |  |  | Insecticidal effect, Test Example 3 [1, 5]: A (100); Insecticidal effect, Test Example 1 [2, 6]: A (100)
13 | Cc1cc(C(F)(F)C(F)(F)F)ccc1NC(=O)c1cccc(F)c1C(=O)NCc1ccccc1 [compound 1470] |  |  |  |  | Insecticidal effect (Test Example 3), judged from mortality [1, 3]: A (100); Insecticidal effect (Test Example 1), judged from mortality [2]: A (100)
14 | CC(C)NC(=O)c1cccc(Cl)c1C(=O)Nc1ccc(OC(F)F)c(Cl)c1 [compound 232] |  |  | A (100) | A (100) | 
15 | Cc1cc(OC(C)C)ccc1NC(=O)c1cccc(I)c1C(=O)NC(C)C [compound 377] |  |  | A (100) | A (100) | 
16 | Cc1cc(OC(F)(F)F)ccc1NC(=O)c1c(Br)cccc1C(=O)NC(C)C [compound 326] |  |  | A (100) | A (100) | 
17 | Cc1cc(C(F)(F)C(F)(F)F)ccc1NC(=O)c1cccc(I)c1C(=O)NC1CCCCC1 [compound 993] |  |  |  |  | Insecticidal effect, Test Example 3 [1, 5]: A (100); Insecticidal effect, Test Example 1 [2, 6]: A (100)
18 | CC(C)NC(=O)c1cccc(I)c1C(=O)Nc1ccc(OC(F)(F)F)cc1Cl [compound 467] | A (100) | A (100) |  |  | 
19 | CC(C)NC(=O)c1cccc(Cl)c1C(=O)Nc1cccc([S+]([O-])C(F)(F)F)c1 (stereo not drawn) [compound 206] |  |  | A (100) | A (100) | 
20 | Cc1cc(Br)ccc1NC(=O)c1c(Br)cccc1C(=O)NC(C)C [compound 311] |  |  | D (79-50) | A (100) | 
21 | CC(C)NC(=O)c1c(C(=O)Nc2ccc(C(C)C)cc2)cccc1[N+](=O)[O-] [compound 604] | D (79-50) | A (100) |  |  | 

Row | SMILES | Insecticidal effect on rice leafroller (Test Example 3), judged grade [1] | Insecticidal effect on diamondback moth (Test Example 1), judged grade [2] | Insecticidal effect, Test Example 3 [1, 3] | Insecticidal effect, Test Example 1 [2, 4] | further results
22 | Cc1ccc(NC(=O)c2cccc([N+](=O)[O-])c2C(=O)NC(C)C)c(C)c1Cl [compound 670] | D (79-50) | A (100) |  |  | 
23 | Cc1cc(C(F)(F)C(F)(F)F)ccc1NC(=O)c1cccc(Cl)c1C(=O)Nc1ccco1 [compound 1390] |  |  |  |  | Insecticidal effect, Test Example 3 [1, 5]: A (100); Insecticidal effect, Test Example 1 [2, 6]: A (100)
24 | Cc1cc(Br)ccc1NC(=O)c1cccc([N+](=O)[O-])c1C(=O)NC(C)C [compound 671] | D (79-50) | A (100) |  |  | 
25 | Cc1cc(SC(C)C)ccc1NC(=O)c1cccc(F)c1C(=O)NC(C)C [compound 518] | B (99-90) | A (100) |  |  | 
26 | CCC(C)NC(=O)c1c(C(=O)Nc2ccc(OC(F)F)cc2C)cccc1[N+](=O)[O-] (stereo not drawn) [compound 839] | C (89-80) | A (100) |  |  | 
27 | CC(C)NC(=O)c1c(I)cccc1C(=O)Nc1ccc(C(F)(F)C(F)(F)F)cc1C(F)(F)C(F)(F)F [compound 1410] |  |  |  |  | Insecticidal effect, Test Example 3 [1, 5]: A (100); Insecticidal effect, Test Example 1 [2, 6]: A (100)
28 | CCN(CC)C(=O)c1cccc(I)c1C(=O)Nc1ccc(C(F)(F)C(F)(F)F)cc1C [compound 1036] |  |  |  |  | Insecticidal effect, Test Example 3 [1, 5]: A (100); Insecticidal effect, Test Example 1 [2, 6]: A (100)
29 | CC(C)NC(=O)c1c(C(=O)Nc2ccc(OC(F)(F)F)cc2Cl)cccc1[N+](=O)[O-] [compound 704] | A (100) | A (100) |  |  | 
30 | CC(C)NC(=O)c1cccc(I)c1C(=O)Nc1ccc(Cl)cc1 [compound 411] |  |  | A (100) | A (100) | 
31 | Cc1ccc(Cl)cc1NC(=O)c1c(OC(F)F)cccc1C(=O)NC(C)C [compound 778] | A (100) | A (100) |  |  | 
32 | CC(C)NC(=O)c1cccc(I)c1C(=O)Nc1cccc(C(F)(F)F)c1 [compound 414] |  |  | A (100) | A (100) | 
33 | Cc1cc(OC(F)F)ccc1NC(=O)c1cccc([N+](=O)[O-])c1C(=O)NC(C)c1ccccc1 (stereo not drawn) [compound 879] | A (100) | A (100) |  |  | 
34 | Cc1cc(Cl)ccc1NC(=O)c1c(F)ccc(F)c1C(=O)NC(C)C [compound 582] | A (100) | A (100) |  |  | 
35 | CCCNC(=O)c1c(C(=O)Nc2cc(Cl)ccc2C)cccc1[N+](=O)[O-] [compound 18] |  |  | A (100) | D (79-50) | 
36 | Cc1cc(C(F)(C(F)(F)F)C(F)(F)F)ccc1NC(=O)c1c(I)cccc1C(=O)NC(C)c1ccccn1 (stereo not drawn) [compound 1774] |  |  |  |  | Insecticidal effect (Test Example 3), judged from mortality [1, 3]: A (100); Insecticidal effect (Test Example 1), judged from mortality [2]: A (100)
37 | Cc1cccc(CNC(=O)c2cccc(Cl)c2C(=O)Nc2ccc(C(F)(F)C(F)(F)F)cc2C)c1 [compound 1340] |  |  |  |  | Insecticidal effect, Test Example 3 [1, 5]: A (100); Insecticidal effect, Test Example 1 [2, 6]: A (100)
38 | CC(C)NC(=O)c1ccccc1C(=O)Nc1ccc(Cl)cc1F [compound 1632] |  |  |  |  | Insecticidal effect (Test Example 3), judged from mortality [1, 3]: A (100); Insecticidal effect (Test Example 1), judged from mortality [2]: A (100)
39 | CCNC(=O)c1cccc(Cl)c1C(=O)Nc1ccc(OC(F)F)cc1C [compound 9] |  |  | A (100) | A (100) | 
40 | CC(C)NC(=O)c1c(C(=O)Nc2ccc(C(F)(F)F)cc2Cl)cccc1[N+](=O)[O-] [compound 660] | A (100) | A (100) |  |  | 
41 | Cc1cc(C(F)(F)C(F)(F)F)ccc1NC(=O)c1cccc(Cl)c1C(=O)NCCc1ccc(Cl)cc1 [compound 1360] |  |  |  |  | Insecticidal effect, Test Example 3 [1, 5]: C (89-80); Insecticidal effect, Test Example 1 [2, 6]: A (100)
42 | CC(C)NC(=O)c1c(C(=O)Nc2cc(C(F)(F)F)ccc2Cl)cccc1[N+](=O)[O-] [compound 661] | D (79-50) | B (99-90) |  |  | 
